This is an account of results in patent US20140228682A1, “IMAGING PROBES, IMAGING SYSTEMS, AND METHODS OF IMAGING” (priority 2013, published 2014).

For assay [1], the system named is cartilage. The assay is described as follows: optical (Cerenkov) imaging of joints in mice, in vivo and ex vivo. As to conditions: FIG. 3, tail vein injection, 5 days post-injection, optical imaging instrument (in vivo and ex vivo). On the procedure: (§1) The mice were injected with tracer through tail vein and then imaged at 5 days post-injection by small animal PET (left two columns of images) and optical imaging instrument (in vivo and ex vivo) (right two columns images).

The subject of assay [2] is cartilage. The assay is described as follows: small animal PET imaging of cartilage / osteoarthritis joints in mice. The class given is in vivo. The procedure: The mice were injected with ^89Zirconium oxalate through tail vein and then imaged by small animal PET.
as §1

Where [3] appears, read: FIG. 3, tail vein injection, 5 days post-injection.

For ^89Zr oxalate, the “signal in OA joints” value in the assay with cartilage [1] is “low signal”; in the assay with cartilage [2] (FIG. 2, tail vein injection) it was “low signal”; in the assay with cartilage [2] (setting [3]) it was “low signal”. Also, the “signal in sham and untreated joints” value in the assay with cartilage [1] is on record as “high signal”; in the assay on cartilage [2] (FIG. 2, tail vein injection), “high signal”; with cartilage [2] (setting [3]), “high signal”.
